Among the data in BindingDB's records for patent US11225492 (Hangzhou Innogate Pharma Co., Ltd., 2022) are IC50 values, retold here.

This assay deals with Cyclin-dependent kinase 6 (Homo sapiens, UniProt Q00534). Kind of assay: Kinase Assay. Here is the method:
CDK2/CycA2 and CDK6/cycD3 were assayed under buffer conditions in the presence of 50 mM HEPES (pH 7.5), 10 mM MgCl2, 0.0015% Brij-35, and 2 mM dithiothreitol, CDK4/CycD3 with buffer condition of 20 mM HEPES (pH 7.5), 10 mM MgCl2, 0.01% Triton X-100, and 2 mM dithiothreitol. Prepare compounds to 50× of the final desired highest inhibitor concentration by 100% DMSO and serial dilution in 3-fold for total of 10 concentrations. […] After assay for 60 min, 180 min, 60 min respectively at 28° C., reactions were terminated with stop solution (50 mM EDTA, 0.015% Brij-35, 0.2% Coating Reagent #3 and 100 mM HEPES (pH 7.5)). Collect conversion on Caliper EZ Reader.

Cyclin-dependent kinase 6, sequence (Q00534 whole entry): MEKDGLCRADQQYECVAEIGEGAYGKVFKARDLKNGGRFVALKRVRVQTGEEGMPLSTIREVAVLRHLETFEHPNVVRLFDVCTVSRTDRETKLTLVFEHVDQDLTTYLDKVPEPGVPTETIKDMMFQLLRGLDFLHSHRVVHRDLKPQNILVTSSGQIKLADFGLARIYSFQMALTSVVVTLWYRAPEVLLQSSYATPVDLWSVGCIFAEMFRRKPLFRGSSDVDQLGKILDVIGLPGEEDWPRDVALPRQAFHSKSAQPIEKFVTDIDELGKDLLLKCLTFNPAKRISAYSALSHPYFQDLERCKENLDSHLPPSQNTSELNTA

Consider `CC(=O)c1c(C)c2cnc(Nc3ccc4c(c3)OCC3CNCCN43)nc2n(C2CCCC2)c1=O` (racemic) [US11225492, Compound 7], for which the 50% inhibitory concentration (IC50) was under 0.025 µM.

In the case of `CC(=O)c1c(C)c2cnc(Nc3ccc4c(c3)OC[C@H]3CNCCN43)nc2n(C2CCCC2)c1=O` [US11225492, Compound 7R], the IC50 was under 0.025 µM.

Take `CC(=O)c1c(C)c2cnc(Nc3ccc4c(c3)OC[C@@H]3CNCCN43)nc2n(C2CCCC2)c1=O` [US11225492, Compound 7S]: the concentration for half-maximal inhibition (IC50) is under 0.025 µM.

Broadly, the IC50 is the point on the concentration scale where inhibition reaches its midpoint. A high value points to a need for much substance.
